{"source": "patent US20220281779A1", "about": "“Fertiliser and/or Soil Improver Composition, Method of Preparation and Method of Use” (Veratin Pty Ltd, priority 2016, published 2022)", "tested_on": "Sceptre wheat", "assay": "Field wheat trial", "assay_type": "in vivo", "conditions": "total N applied: nV-2 17 units, Flexi-N and Urea 59 units", "protocol": "A fertiliser and/or soil improver composition (nV-2) is prepared using a method exemplified in Example III, with a sheep wool material (uncleaned and/or containing the fat layer) being deconstructed using a eutectic melt comprising urea:choline chloride at a ratio in the range of from about 7.5:1 to about 4:1, and with the temperature for the deconstruction of wool being in a range of approximately 145-165° C. (or more specifically approximately 145-160° C.). The composition (nV-2) was also prepared at a weight to volume ratio of the wool to eutectic melt in the range of from about 1 g:1 ml to about 1 g:25 ml.\nThe resultant fertiliser and/or soil improver composition (nV-2) comprises 35% (w/v) of total N (nitrogen) and has pH in the range of pH 5.5-6.5. For the field application, the composition nV-2 was mixed with water (as a carrier) in a ratio of approximately 52 L water to approximately 48 L of nV-2.\nThe field wheat trial was established as a randomised complete block of 5 treatments and 4 replicates in a single bank with each plot 12 meter long by 2 meter wide.\nThe effectiveness of the fertiliser and/or soil improver composition nV-2 according to the present invention on plant growth (wheat in this instance) and/or as an organic nitrogen nutrient source, is compared with a commercial inorganic fertiliser (Flexi-N, which is a commercially available fertiliser distributed by the Australian Company CSBP and contains three forms of N—urea, ammonium and nitrate, with a total N concentration of 42%), and with Urea alone (at 46% total N). […]\nAt 41 and 75 days after sowing, the NDVI was recorded for each plot using a hand-held green-seeker.\nAt 209 days after sowing, the trial was plot harvested for yield comparisons with grain samples collected from each plot and analysed for quality (protein, moisture, specific weight and screenings) according to industry standards.\nAll data collected was statistically analysed with the proprietary agricultural field research program ARM® using an Analysis of Variance at a confidence limit of 95%."}
{"compound": "NC(N)=O", "note": "[Urea]", "values": [{"measurement": "Average crop yield", "setting": "harvest 209 days after sowing", "value": 7.848}, {"measurement": "Average crop yield/Unit of N", "value": 0.133}, {"measurement": "Net crop yield/unit of N", "value": 0.009}]}
